Patent publication US12329883B2, “Soft tissue repair implants comprising hydroxybutyrate” (Davol Inc., priority 2017, dated 2025)

Test system: cathelicidin LL-37 expression
Assay: cathelicidin LL-37 immunolabeling of primary macrophages exposed for 18 hours to samples
Type: cell-based, C57bl/6 mice
Details: primary bone marrow-derived macrophages, 18 hours exposure
Method: Primary macrophages were differentiated from mononuclear cells harvested from the bone marrow of C57bl/6 mice. A solution of these primary macrophages was divided into 18 wells, each of which was exposed for 18 hours to one of samples nos. 1-18; i.e., a composition comprising either a species of interest dissolved in cell growth media or a solubilized biological scaffold dissolved in cell growth media. […]
After immunolabeling preparation, images were taken of the counterstained macrophages for three 20× fields for each well using a Zeus live-cell microscope. […] The light exposure time that produced the best images was determined, and the remaining samples were imaged at this light exposure time.
After immunolabeling, each macrophage nucleus appeared blue in the immunolabeling images and cathelicidin LL-37 appeared green. The percentages of macrophages expressing cathelicidin LL-37 shown in FIG. 7 were calculated by dividing the number of cathelicidin LL-37-expressing cells in each image (determined by the number of blue nuclei located in close proximity to green cathelicidin LL-37) by the number of cells in each image (determined by the number of blue nuclei in each image). The identification of cathelicidin LL-37 and cell nuclei in the images was determined with the aid of CellProfiler, a […] software analyzer (available at http://www.cellprofiler.org). […]

Structure (SMILES): O=C(O)CCCO [4-hydroxybutyrate]
- cathelicidin LL-37 expression (percent of cathelicidin LL-37 expressing cells, FIG. 6 and FIG. 7) (Example 1, 4HB 12 mM): strongly promoted
- cathelicidin LL-37 expression (percent of cathelicidin LL-37 expressing cells, FIG. 8 and FIGS. 9-16) (Example 2, concentration series of Table 2): effectively induce
